The test system of experiment [1] is mutant eGFP gene in DLD-1-1 cells. As to the kind of experiment: eGFP gene correction (oligonucleotide-directed sequence alteration) in DLD-1-1 cells, FACS readout. The experiment is classed as cell-based. Particulars: for effect on correction when added after electroporation: recovery period, AraC 2-48 hrs, aphidicolin 6 μM at 2, 6 and 24 hrs. How it is done:
Cell line and culture conditions: DLD-1 cells are obtained from ATCC (American Type Cell Culture, Manassas, Va.). DLD-1 integrated clone 1 (DLD-1-1) is obtained by integration of the vector pEGFP-N3 containing a single point mutation (TAG) in the eGFP gene, as described in copending U.S. patent application Ser. No. 10/986,418, filed Nov. 10, 2004 (“Mammalian Cell Lines for Detecting, Monitoring, and Optimizing Oligonucleotide-Mediated Chromosomal Sequence Alteration”). Cells are grown in RPMI 1640 medium with 2 mM glutamine, 4.5 g/L glucose, 10 mM HEPES, 1 mM sodium pyruvate and supplemented with 10% FBS. Cells are maintained at 5% CO2, 37° C. and under selection in 200 μg/ml G418 (Gibco, Invitrogen Co., Carlsbad, Calif.).
eGFP gene correction: Cells grown in complete medium supplemented with 10% FBS are trypsinized and harvested by centrifugation. The cell pellet is resuspended in serum-free medium at a density of 1×10^6 cells/100 μl and transferred to a 4 mm gap cuvette (Fisher Scientific, Pittsburgh, Pa.). The oligonucleotide is then added at a concentration of 4 μM and the cells are electroporated (LV, 250V, 13 msec, 2 pulses, 1 second interval) using a BTX ECM830 apparatus (BTX, Holliston, Mass.). The cells are then transferred to a 60 mm dish containing fresh medium supplemented with 10% FBS and incubated for 48 hrs at 37° C. before harvesting for FACS analysis.
The percentage of converted cells in a whole population is then calculated by CellQuest™ (Becton Dickinson) and GFP/PI programs. The correction efficiency is determined by dividing the number of eGFP positive cells by the number of cells analyzed in each experiment (usually 50,000 cells). Each clone is tested three times to determine the standard deviation of the correction efficiency, with standard deviation calculated using Microsoft Excel.
The experimental strategy involves the introduction of oligonucleotides into DLD-1-clone 1 cells by electroporation followed by phenotypic readout of the corrected eGFP gene, 48 hours later. The correcting oligonucleotide (EGFP3S/72NT) is 72 bases in length (72-mer), complementary to the non-transcribed strand of the mutant eGFP gene but designed to create a single mismatch in the third base of codon 67 (see FIG. 1A). It directs conversion of a TAG→TAC codon which enables phenotypic expression of eGFP, which can be detected by FACS. FIG. 1B outlines the sequence of the target gene, the 72-mer and a nonspecific 74-mer used as a control.
Oligonucleotide-Directed Sequence Alteration: The resulting synchronized populations of cells, and asynchronous controls, are grown in complete medium supplemented with 10% FBS and trypsinzed and harvested by centrifugation at 1500 rpm for 5 minutes. The cell pellet is resuspended in fresh serum-free medium at a density of 2×10^6 cells/100 μl. The entire cell suspension is mixed with 20 μg of EGFP/72NT and transferred into a 4 mm gap cuvette (Fisher Scientific, Pittsburgh, Pa., USA) followed by electroporation with two 250V pulses, each 13 ms in duration, with one second between pulses, unipolar.
Cells are incubated at room temperature for 30 min. […] Frequency of converted cells are calculated by CellQuest™ and GFP/PI programs.
Double Thymidine Block: Cells are synchronized in G1 or at the G1/S border by a double thymidine block. Twenty-four hours prior to the addition of any agent (HU, etc.), cells are plated at a density of 0.5×10^6 cells per 100 mm dish, followed by incubation in 2 mM thymidine (Sigma) for 16 hrs, washed and released in fresh medium for 10 hrs, then incubated in 2 mM thymidine for an additional 15 hrs.
FACS is then used to analyze 50,000 cells from each population to determine the percentage of cells expressing functional eGFP, as described in Example 1.

Experiment [2] relates to DLD-1-1 cells. The experiment is described as follows: BrdU incorporation (actively replicating forks). The experiment is classed as cell-based. Conditions: for BrdU uptake (cells actively incorporating DNA bases): 24 hour treatment, 500 μM ddC, ddI or AraC (FIG. 17B). How it is done: (§1) For cell cycle analysis, 1×10^6 cells are plated 24 hrs before the treatment with drugs and after 24 hrs of treatment, cells are trypsinized, resuspended in 300 μl cold PBS and fixed by adding 700 μl cold ethanol. Cells are then resuspended in 1 ml of PBS containing 500 µg/ml RNaseA and […] propidium iodide and analyzed for DNA content.
(§2) The resulting cells are then either analyzed by FACS, or the percentage of cells in S phase is determined by BrdU incorporation. FIG. 8 presents the results of both sets of experiments.
As stated above, the lack of stimulation observed in cells treated with AraC could be explained by the reduced number of cells passing through S phase or the absence of actively replicating forks. If true, we might predict that a rise in the gene repair frequency would appear if the cells are released from the AraC block and replication forks are allowed to restart prior to the electroporation of the oligonucleotide. We test this prediction by treating the cells with AraC for 24 hrs and then releasing them by washing out the drug at specific times. We measure the level of BrdU incorporation at the time of electroporation and evaluate the frequency of correction 48 hrs later.

The test system of experiment [3] is DLD-1-1 cells. As to the kind of experiment: Cell cycle analysis (DNA content by FACS), cells in S phase. The experiment is classed as cell-based. How it is done:
as §1
The effect of cell cycle on the efficiency of ODSA is assessed by synchronizing a population of DLD-1-1 cells with mimosine, which arrests cells in early S phase, and serum starvation. Cells are seeded at a density of 0.8×10^6 per 100 mm dish, attached for 20 hours and then cultured in RMPI-1640 medium containing 0.2% fetal bovine serum (FBS). These cells are grown for 48 hours followed by treatment with 0.1 mM mimosine (Sigma, St. Louis, Mo., USA) for 20 hours. Cell are washed twice with PBS and released at various times into fresh medium complemented with 10% FBS before electroporation. Cells are rinsed once with PBS, trypsinized and harvested by centrifugation and resuspended in PBS containing 10 μg/ml propidium iodide, 0.03% Triton-100 and 1 mg/ml RNase. Cells are incubated at room temperature for 1 hour before the measurement of DNA content by FACSCalibur™ flow cytometer. The percentage of cells at various stages of the cell cycle is determined by ModFit L™ software (Verity Software House, Inc., Topsham, Me., USA).
as §2

The subject of experiment [4] is α-galactosidase A (GLA) activity in Fabry's cell line DMN-1. As to the kind of experiment: GLA activity in Fabry's cells after ODSA. In kind it is cell-based, human. The source says:
Cell line DMN-1, a human fibroblast cell line derived from a human patient with Fabry's disease, is obtained from the National Institutes of Health (NIH). These cells are used to measure the efficiency of correction of a mutant allele of α-galactosidase A (GLA) using methods of the present invention. The specific disease-causing mutation in the Fabry's cell line used herein is A143P, caused by a G→C mutation in the gene. See Branton et al., Medicine (Baltimore) (2002) 81(2): 122-38.
All four oligonucleotides are used to effect ODSA substantially as described in Example 1, with the exception that cells are transfected with oligonucleotides, rather than electroporated. Oligos are added at 5 μg, 10 μg or 30 μg per reaction. After ODSA is performed, cells are cultured and assayed for GLA activity according to the method of Brady, as described in Medin et al., Proc. Natl. Acad. Sci. (USA) (1996) 93:7917-22, the disclosure of which is incorporated herein by reference in its entirety. The GLA activity is used as a measure of gene correction by comparing the activities in treated versus untreated cultures. The correction efficiency is subsequently confirmed by sequencing of the locus of mutation in a number of treated cells.
[…] Unlike the experiments involving correction of eGFP in DLD-1-1 cells described in Example 1, however, certain of the agents (VPA, caffeine, TSA) in the experiments in this example are not added before transfection, but are instead added only after transfection, during the recovery period.
The means of introducing oligonucleotide into the target cells also differs from previous examples, with transfection in the presence of the transfection enhancing agent FuGENE™ 6 (FG) (Roche Diagnostics Corp., Indianapolis, Ind., USA) being used rather than electroporation. Each transfection reaction includes 100 μl of target cells and 12 μl of FG unless otherwise indicated, despite the fact that FG is not explicitly listed for each datapoint in the relevant figures. Otherwise the procedures used in the DLD-1-1 experiments and the Fabry's experiments are similar.
The results of a further series of experiments are shown at FIG. 15D, where the data are presented as GLA activity as nanomolar (nM) concentration of the product of the GLA assay generated per hour per unit protein concentration (as are the data in FIGS. D and E).

Where [5] appears, read: 24 hour treatment, 500 μM ddC, ddI or AraC (FIG. 17A).
Where [6] appears, read: 2-5 μM VPA in the recovery phase.
[7] abbreviates: serum starvation + mimosine, 8 hours after release.

Structures are written as SMILES. “Also recorded” adds a separate entry of the source.

This note sets out measurements from US20070072815A1, “Methods and kits to increase the efficiency of oligonucleotide-directed nucleic acid sequence alteration” (priority 2004, published 2007).

In the case of `COc1cc(C=O)ccc1O` [vanillin], the “effect on correction efficiency” value in experiment [1] (1 mM vanillin, before or after electroporation, with or without ddC) is “no effect on correction efficiency; also recorded: does not inhibit gene repair activity”. In experiment [1] (inhibitor added with ddC before electroporation (FIG. 20)), the “effect on ddC-stimulated gene repair” value is “statistically unchanged”.
On to `Nc1ccn([C@@H]2O[C@H](CO)[C@@H](O)[C@@H]2O)c(=O)n1` [AraC, 1-β-D-arabinofuransylcytosine], for which the “effect on correction levels” value in experiment [1] (AraC 5 μM to 250 μM, 24 hrs before electroporation) is “no enhancement in correction levels; also recorded: significantly insignificant effect”. For the same molecule, the “time post release at which gene repair activity reaches maximal level” value in experiment [1] (AraC 24 hrs, then washed out before electroporation) came to 8 h. Moreover, the “effect on correction when added after electroporation” value in experiment [1] was “correction levels drop substantially”. Also, the “BrdU uptake (cells actively incorporating DNA bases)” value in the experiment on DLD-1-1 cells [2] was “essentially zero”. Also, the “time after release at which elevation in BrdU incorporation is observed” value in the experiment with DLD-1-1 cells [2] (AraC 24 hrs, then washed out) is at most 2 h. For the same molecule, the “cells in S phase” value in the experiment on DLD-1-1 cells [3] (setting [5]) worked out at 26%. In addition, the “reduction in S phase cells” value in the experiment on DLD-1-1 cells [3] (AraC at 20 μM and 250 μM) is reported as 9%.
Regarding `CC(/C=C/C(=O)NO)=C\[C@@H](C)C(=O)c1ccc(N(C)C)cc1` [TSA, trichostatin A], the “effect on ddC-enhanced GLA activity” value in experiment [4] (synchronized cells, 500 μM ddC, 4 mM caffeine or 100 ng/ml TSA during recovery period) is given as “eliminate the ability of 500 μM ddC to enhance GLA activity”.
In the case of `C[C@@]1(CO)[C@H](O)CC[C@@]2(C)[C@H]1CC[C@H]1C[C@@H]3C[C@@]12CC[C@]3(O)CO` [Aphidicolin, aphidicolin], in experiment [1], the “effect on correction when added after electroporation” value is recorded as “low level of correction”.
For the molecule `CCCC(CCC)C(=O)O` [VPA, valproic acid], in experiment [4] (5 μM VPA during recovery period), the “GLA activity versus untreated cells” value is listed as “over 20 fold”. The GLA activity in experiment [4] (5 μM VPA during recovery period after transfection with 49T/gg) is listed as 98.71 nM product per hour per unit p. Also, in experiment [4] (setting [6]), the “GLA activity over untreated cells” value was 25 fold and the “GLA activity versus cells treated identically without VPA” value is “more than eight-fold”.
`NC(Cn1ccc(=O)c(O)c1)C(=O)O` (stereo not drawn) [mimosine]: the “increase of correction efficiency versus asynchronous cells” value in experiment [1] (setting [7]) is given as 2.5 fold. Besides, in the experiment on DLD-1-1 cells [3] (serum starvation + 0.1 mM mimosine, 8 hours after release), the “cells in S phase” value came to 86%. The “increase of proportion of cells in S phase versus asynchronous cells” value with DLD-1-1 cells [3] (setting [7]) worked out at 2.5 fold.
With `CC[C@@]1(O)C(=O)OCc2c1cc1n(c2=O)Cc2cc3ccccc3nc2-1` [CPT, camptothecin], the “effect on correction efficiency” value in experiment [1] (CPT pretreatment at 30-100 nM) was “triples correction efficiency”. Also, in experiment [4] (7.5 nM CPT during recovery), the “GLA activity versus no treatment control” value was “approximately six-fold”. For the same molecule, the GLA activity in experiment [4] (7.5 nM CPT during recovery, 49T/gg) is on record as 26.84 nM product per hour per unit p. Moreover, the “effect on GLA activity” value in experiment [4] (CPT 7.5 nM (FIG. 15D summary)) was “more than doubles GLA activity”.
Regarding `O=c1[nH]cnc2c1ncn2[C@H]1CC[C@@H](CO)O1` [ddI, dideoxyinosine], in experiment [1] (various dosages of ddI), the “effect on gene correction” value was “no significant increase in gene correction; also recorded: statistically insignificant effect”. The “BrdU uptake (cells actively incorporating DNA bases)” value in the experiment on DLD-1-1 cells [2] was “no difference from non-treated cells”. Moreover, the “cells in S phase” value with DLD-1-1 cells [3] (setting [5]) is reported as “does not show an increase in the number of cells in S phase”.
For `COc1cc([C@@H]2c3cc4c(cc3[C@@H](O[C@@H]3O[C@@H]5CO[C@@H](C)O[C@H]5[C@H](O)[C@H]3O)[C@H]3COC(=O)[C@H]23)OCO4)cc(OC)c1O` [VP16, 4′-demethylepipodophyllotoxin-9-(4,6-O-ethylidene-beta-D-glucopyranoside)], the “percentage of cells in S phase by BrdU” value in the experiment with DLD-1-1 cells [2] (24 hours, 1 mM HU or 3 μM VP16) worked out at 56%. The “cells in S-phase” value with DLD-1-1 cells [3] (24 hours, 1 mM HU or 3 μM VP16, FACS analysis) was 56%.
